Reference: patent US10722586B2, “Filmogenic compositions for topical anaesthetic bioadhesives—tabs, for controlled release of active principles and topical anaesthetic bioadhesives” (UNIVERSIDADE FEDERAL DE PELOTAS, priority 2014, dated 2020)

Test system: cell line of mouse fibroblasts (NIH/3T3)
Test: Cytotoxicity test (MTT, ISO 10993) on NIH/3T3 fibroblasts
Assay type: cell-based
Conditions: absorbance at 540 nm, mean (±SD)
Description: The cytotoxicity of the products of the invention is evaluated with the cell line of mouse fibroblasts (NIH/3T3).
The test is performed according to ISO 10993 (2009). The cell suspension is plated at a concentration of 2×10^4 cells per well and delivered into a cell culture dish of 96 wells. Each well receives 200 μl DMEM (Dulbecco's Modified Eagle Medium) supplemented with 10% Fetal Bovine Serum. The plate is then incubated at 37° C. in an atmosphere containing 5% CO2 for 24 hours. In control wells, 200 μl DMEM (Dulbecco's Modified Eagle Medium) is supplemented with fetal bovine serum 10%. After removal of the test extracts, 200 μl PBS (phosphate buffered saline) and 20 μl of MTT (tetrazolium salt [3-(4,5-dimetltiazol-2-yl)-2,5-diphenyltetrazolium bromide] are added to each well. The plate is incubated in a room without light for 24 hours at 37° C. After that, MTT is aspirated and 200 μl dimethylsulfoxide (DMSO) is added to each well. Thereafter, absorbance at 540 nm is measured using a spectrophotometer and the results were analyzed statistically.
The data are tabulated and submitted to Kruskal-Wallis nonparametric statistical analysis and Tukey's complementary test (p<0.05).
The results of cytotoxicity testing are illustrated in FIG. 10.

CCOC(=O)c1ccc(N)cc1 [Example P20, benzocaine]
ABSORBANCE (540 nm): 0.511 (±0.032)^A
